Data: patent US20150246093A1, “ORAL FORMULATIONS OF ANGIOTENSIN” (TARIX PHARMACEUTICALS LTD., priority 2012, published 2015)
Where two headings read alike, the source gives them in different places.

Experiment: Pharmacokinetics after intra-duodenal injection (ID) in anesthetized rats, model mimicking enteric-coated oral dosage form, plasma LC-MS
Assay type: in vivo, rat
Conditions: rat, plasma; for Tmax / AUC(0-t) / Cmax / Half-Life: other: intra-duodenal injection (ID); for AUC(0-t): read-out: AUC0-90 (converted); for Cmax: read-out: Cmax; for level at 5 min: time point 5 min; for level at 5 min / level at 10 min / level at 20 min / level at 40 min / level at 1 h / level at 1.5 h: Average, read-out: Angiotensin (1-7) concentration; for level at 10 min: time point 10 min; for level at 20 min: time point 20 min; for level at 40 min: time point 40 min; for level at 1 h: time point 60 min; for level at 1.5 h: time point 90 min
Procedure: This model mimics the release and absorption expected from an orally delivered enteric coated solid dosage form such as capsule or tablet.
After extraction, the samples were then transferred to ice-cold tubes containing a protease inhibitor cocktail. The samples were kept on ice until they were centrifuged at 4° C. to obtain plasma. The plasma supernatants were then frozen −70° C. until analysis using an LC-MS assay.
The oral delivery of an angiotensin (1-7) peptide (e.g., TXA127) was then evaluated in a rat model that mimics the release of the peptide into the intestine by enteric-coated capsule. Briefly, the duodenums of anesthetized rats were surgically exposed, and an angiotensin (1-7) peptide was delivered through a 27 gauge needle into the duodenum. A baseline was obtained by ID administration of an angiotensin (1-7) in PBS. Samples of blood was removed from the carotid artery before and 5, 10, 20, 40, 60 and 90 minutes after peptide administration. Subsequently, an angiotensin (1-7) peptide was administered ID in 400 mM citrate buffer (pH 3.5) and lauroyl-L-carnitine (LLC) (10 mg/ml), a formulation that mimics the contents of the enteric-coated capsules. In order to maximize the stability of TXA127 in rat circulation, captopril (e.g., 0.5 mg/ml or 5 mg/ml) may be added to the formulations. Blood samples were taken at the same time points as the baseline study and handled as described above for analysis.

[1] = 3 mg, ID 0.3 ml A [10 mg/ml in PBS], Mean PK Values (average of individual PK parameters)
[2] = 3 mg, pH 3.5, ID 0.3 ml B [10 mg/ml, 10 mg/ml LLC, 400 mM Citrate pH 3.5, 150 mM NaCl], Average (PK value of the mean concentrations)
[3] = 3 mg, pH 3.5, ID 0.3 ml B [10 mg/ml, 10 mg/ml LLC, 400 mM Citrate pH 3.5, 150 mM NaCl], Mean PK Values (average of individual PK parameters)
[4] = 3 mg, pH 3.5, ID 0.3 ml C [10 mg/ml, Captopril 0.5 mg/ml, 10 mg/ml LLC, 400 mM Citrate pH 3.5, 150 mM NaCl], Average (PK value of the mean concentrations)
[5] = 3 mg, pH 3.5, ID 0.3 ml C [10 mg/ml, Captopril 0.5 mg/ml, 10 mg/ml LLC, 400 mM Citrate pH 3.5, 150 mM NaCl], Mean PK Values (average of individual PK parameters)
[6] = 3 mg, pH 3.5, ID 0.3 ml C [10 mg/ml, Captopril 5 mg/ml, 10 mg/ml LLC, 400 mM Citrate pH 3.5, 150 mM NaCl], Average (PK value of the mean concentrations)
[7] = 3 mg, pH 3.5, ID 0.3 ml C [10 mg/ml, Captopril 5 mg/ml, 10 mg/ml LLC, 400 mM Citrate pH 3.5, 150 mM NaCl], Mean PK Value (average of individual PK parameters)
[8] = pH 3.5, ID 0.3 ml C [10 mg/ml, Captopril 0.5 mg/ml, 10 mg/ml LLC, 400 mM Citrate pH 3.5, 150 mM NaCl]
[9] = pH 3.5, ID 0.3 ml C [10 mg/ml, Captopril 5 mg/ml, 10 mg/ml LLC, 400 mM Citrate pH 3.5, 150 mM NaCl]

Tmax (3 mg, ID 0.3 ml A [10 mg/ml in PBS], Average (PK value of the mean concentrations), read-out: Tmax (converted)): 60 min
AUC(0-t) [1]: 6.72 ng·h/mL
Cmax [1]: 7.5 ng/mL
Half-Life (3 mg, ID 0.3 ml A [10 mg/ml in PBS], Mean PK Values (average of individual PK parameters), read-out: Half-Life): 38.9 min
Tmax (3 mg, ID 0.3 ml A [10 mg/ml in PBS], Mean PK Values (average of individual PK parameters), read-out: Tmax (converted)): 46 min
Half-Life (3 mg, ID, 0.3 mL of 10 mg/mL A(1-7) formulated in PBS, 6 rats, range over the group, read-out: Half-lives): 7 to 140 min
Tmax (3 mg, ID, 0.3 mL of 10 mg/mL A(1-7) formulated in PBS, 6 rats, range over the group, read-out: Tmax after administration): 10 to 60 min
AUC(0-t) [2]: 71.2 ng·h/mL
Cmax [2]: 416 ng/mL
Half-Life (3 mg, pH 3.5, ID 0.3 ml B [10 mg/ml, 10 mg/ml LLC, 400 mM Citrate pH 3.5, 150 mM NaCl], Average (PK value of the mean concentrations), read-out: Half-Life): 13 min
Tmax (3 mg, pH 3.5, ID 0.3 ml B [10 mg/ml, 10 mg/ml LLC, 400 mM Citrate pH 3.5, 150 mM NaCl], Average (PK value of the mean concentrations), read-out: Tmax (converted)): 5 min
AUC(0-t) [3]: 71.2 ng·h/mL
Cmax [3]: 419 ng/mL
Half-Life (3 mg, pH 3.5, ID 0.3 ml B [10 mg/ml, 10 mg/ml LLC, 400 mM Citrate pH 3.5, 150 mM NaCl], Mean PK Values (average of individual PK parameters), read-out: Half-Life): 46.4 min
Tmax (3 mg, pH 3.5, ID 0.3 ml B [10 mg/ml, 10 mg/ml LLC, 400 mM Citrate pH 3.5, 150 mM NaCl], Mean PK Values (average of individual PK parameters), read-out: Tmax (converted)): 5.8 min
Tmax (3 mg, pH 3.5, ID 0.3 ml B [10 mg/ml, 10 mg/ml LLC, 400 mM Citrate pH 3.5, 150 mM NaCl], individual rats, read-out: Tmax (converted)): 5 min
AUC(0-t) [4]: 126 ng·h/mL
Cmax [4]: 628 ng/mL
Half-Life (3 mg, pH 3.5, ID 0.3 ml C [10 mg/ml, Captopril 0.5 mg/ml, 10 mg/ml LLC, 400 mM Citrate pH 3.5, 150 mM NaCl], Average (PK value of the mean concentrations), read-out: Half-Life): 14 min
Tmax (3 mg, pH 3.5, ID 0.3 ml C [10 mg/ml, Captopril 0.5 mg/ml, 10 mg/ml LLC, 400 mM Citrate pH 3.5, 150 mM NaCl], Average (PK value of the mean concentrations), read-out: Tmax (converted)): 5 min
AUC(0-t) [5]: 119 ng·h/mL
Cmax [5]: 609 ng/mL
Half-Life (3 mg, pH 3.5, ID 0.3 ml C [10 mg/ml, Captopril 0.5 mg/ml, 10 mg/ml LLC, 400 mM Citrate pH 3.5, 150 mM NaCl], Mean PK Values (average of individual PK parameters), read-out: Half-Life): 19.4 min
Tmax (3 mg, pH 3.5, ID 0.3 ml C [10 mg/ml, Captopril 0.5 mg/ml, 10 mg/ml LLC, 400 mM Citrate pH 3.5, 150 mM NaCl], Mean PK Values (average of individual PK parameters), read-out: Tmax (converted)): 7.1 min
Tmax (3 mg, pH 3.5, ID 0.3 ml C [10 mg/ml, Captopril 0.5 mg/ml, 10 mg/ml LLC, 400 mM Citrate pH 3.5, 150 mM NaCl], individual rats, read-out: Tmax (converted)): 5 min
AUC(0-t) [6]: 157 ng·h/mL
Cmax [6]: 619 ng/mL
Half-Life (3 mg, pH 3.5, ID 0.3 ml C [10 mg/ml, Captopril 5 mg/ml, 10 mg/ml LLC, 400 mM Citrate pH 3.5, 150 mM NaCl], Average (PK value of the mean concentrations), read-out: Half-Life): 13 min
Tmax (3 mg, pH 3.5, ID 0.3 ml C [10 mg/ml, Captopril 5 mg/ml, 10 mg/ml LLC, 400 mM Citrate pH 3.5, 150 mM NaCl], Average (PK value of the mean concentrations), read-out: Tmax (converted)): 5 min
AUC(0-t) [7]: 156 ng·h/mL
Cmax [7]: 640 ng/mL
Half-Life (3 mg, pH 3.5, ID 0.3 ml C [10 mg/ml, Captopril 5 mg/ml, 10 mg/ml LLC, 400 mM Citrate pH 3.5, 150 mM NaCl], Mean PK Value (average of individual PK parameters), read-out: Half-Life): 14.1 min
Tmax (3 mg, pH 3.5, ID 0.3 ml C [10 mg/ml, Captopril 5 mg/ml, 10 mg/ml LLC, 400 mM Citrate pH 3.5, 150 mM NaCl], Mean PK Value (average of individual PK parameters), read-out: Tmax (converted)): 5.8 min
Tmax (3 mg, pH 3.5, ID 0.3 ml C [10 mg/ml, Captopril 5 mg/ml, 10 mg/ml LLC, 400 mM Citrate pH 3.5, 150 mM NaCl], individual rats, read-out: Tmax (converted)): 5 min
Half-Life (3 mg, pH 3.5, ID, 0.3 mL of 10 mg/mL A(1-7) with 10 mg/mL LLC, 400 mM Citrate, 150 mM NaCl pH 3.5, range over the group, read-out: Half-lives): 9.3 to 173 min
Tmax (3 mg, pH 3.5, ID, 0.3 mL of 10 mg/mL A(1-7) with 10 mg/mL LLC, 400 mM Citrate, 150 mM NaCl pH 3.5, range over the group, read-out: Tmax after administration): 5 to 10 min
Half-Life (pH 3.5, ID, 0.3 mL of 10 mg/mL A(1-7) with 0.5 mg/mL captopril, 10 mg/mL LLC, 400 mM Citrate, 150 mM NaCl pH 3.5, seven rats (Table 4), range over the group, read-out: Half-lives): 11.9 to 29.1 min
Half-Life (ID, 0.3 mL of 10 mg/mL A(1-7) with 0.5 mg/mL captopril (as printed in the text on Table 5), 10 mg/mL LLC, 400 mM Citrate, 150 mM NaCl pH 3.5, six rats, range over the group, read-out: Half-lives): 7.97 to 25.6 min
Tmax (ID, 0.3 mL of 10 mg/mL A(1-7) with 0.5 mg/mL captopril, 10 mg/mL LLC, 400 mM Citrate, 150 mM NaCl pH 3.5, seven rats (Table 4), range over the group, read-out: Tmax after administration): 5 to 10 min
level at 5 min [8]: 628 ng/mL
level at 10 min [8]: 233 ng/mL
level at 20 min [8]: 129 ng/mL
level at 40 min [8]: 13.9 ng/mL
level at 1 h [8]: 14.4 ng/mL
level at 1.5 h [8]: 7.74 ng/mL
level at 5 min [9]: 619 ng/mL
level at 10 min [9]: 424 ng/mL
level at 20 min [9]: 138 ng/mL
level at 40 min [9]: 24.1 ng/mL
level at 1 h [9]: 19.2 ng/mL
level at 1.5 h [9]: 5.83 ng/mL
Compound: CC[C@H](C)[C@H](NC(=O)[C@H](Cc1ccc(O)cc1)NC(=O)[C@@H](NC(=O)[C@H](CCCNC(=N)N)NC(=O)[C@@H](N)CC(=O)O)C(C)C)C(=O)N[C@@H](Cc1c[nH]cn1)C(=O)N1CCC[C@H]1C(=O)O [Angiotensin (1-7), Asp^1-Arg^2-Val^3-Tyr^4-Ile^5-His^6-Pro^7]
